According to patent publication US20250188080A1, “IMIDAZOLONYLQUINOLINE COMPOUNDS AND THERAPEUTIC USES THEREOF” (Merck Patent GmbH, priority 2019, published 2025):
Converted amounts (≈) assume the structure as drawn. Where two headings read alike, the source gives them in different places.

What was measured:
[1] = target: DNA-PK protein complex (Homo sapiens, UniProt P78527); assay: DNA-PK assay (HTRF); assay type: biochemical
Experimental: The kinase assay was performed as HTRF® based 384-well assay. In a first step DNA-PK protein complex was incubated with or without test compound for 15 min at 22° C. After addition of the STK-substrate 1-biotin (Cisbio), Mg-ATP, DNA and staurosporine the reaction mixture was incubated for 60-80 min (depending on activity of DNA-PK protein complex) at 22° C. An Echo 555 (Labcyte) was used for dispensing of compound solutions. The assay buffer consisted of 25 mM HEPES PH 7.4, 11 mM MgCl2, 80 mM KCl, 0.45 mM EDTA, and 0.5 mM EGTA, and contained 1 mM dithiothreitol (DTT), 0.17% BSA, and 0.01% Tween® 20. The pharmacologically relevant volume was 5 μl. The final concentrations in the assay during incubation of the reaction mixture were 50-100 ng/well DNA-PK protein complex (depending on activity of DNA-PK protein complex), 1 μM STK-substrate 1-biotin, 10 μM Mg-ATP, 80 ng/well DNA from calf thymus, and 1 μM staurosporine. The enzymatic reaction was stopped by addition of EDTA. The generation of phosphorylated STK-substrate 1-biotin as result of the DNA-PK mediated reaction was detected via a specific anti-phospho STK-antibody (Cisbio) labeled with Europium (Eu) as donor and streptavidin labeled with XL665 (Cisbio) as acceptor allowing FRET. For this purpose, 4 μl of antibody- and streptavidin-containing stop solution (12.5 mM HEPES pH 8.0, 125 mM EDTA, 30 mM sodium chloride, 300 mM potassium fluoride, 0.006% Tween-20, 0.005% Brij® 35, 0.179 nM anti-phospho-STK antibody, 160 nM Streptavidin-XL665) were added to the reaction mixture. Following signal development for 1 h the plates were analyzed on a Rubystar or Pherastar microplate reader (BMG Labtech). The amount of phosphorylated substrate was directly proportional to the ratio of fluorescence units (excitation wavelength 337 nm) at the emission wavelengths 665 nm (Phosphopeptide-sensitive wavelength/emission of XL665) to the units at 620 nm (reference wavelength Europium). IC50-values were calculated using Genedata Screener® software. […]

[2] = Solubility in biological buffer solutions; assay type: physicochemical
Experimental: Levels of dissolved compound/form were analysed by HPLC, with the following conditions: • Column: Chromolith RP-18e 100-3 mm • Solvent A: water/formic acid (999:1; v/v) • Solvent B: acetonitrile/formic acid (999:1; v/v) • Injection volume: 5 μL • Column temperature: 37° C. • HPLC-Gradient: […]

[3] = target: T1, human ATR/ATRIP (Homo sapiens, UniProt Q13535); assay: ATR/ATRIP kinase assay; assay type: biochemical
T1 construct: human ATR, full length, GenBank ID: NM_001184.3; host or cells: mammalian cell line (ATR/ATRIP co-expressed); Sf21 insect cells (p53)
Experimental: The IC50 value was determined by an ATR/ATRIP enzymatic assay. The assay comprises two steps: the enzymatic reaction and the detection step. First, a mixture of ATR/ATRIP protein (Ataxia Telangiectasia and Rad3-related protein/ATR interacting protein), the compound in question at different concentrations, p53 as substrate protein and adenosine triphosphate (ATP) are incubated in assay buffer. ATR phosphorylates p53 at Ser15 and other residues. The amount of phosphorylated p53 is then detected using specific antibodies and the TR-FRET assay technology.
In detail: The ATR/ATRIP enzymatic assay is performed as a TR-FRET-(HTRF™, Cisbio Bioassays) based 384-well assay. In a first step, purified human recombinant ATR/ATRIP (human ATR, full length, GenBank ID: NM_001184.3, and human ATRIP, full length, GenBank ID AF451323.1, co-expressed in a mammalian cell line) is incubated in assay buffer for 15 minutes at 22° C. with test compound at different concentrations or without test compound (as a negative control). The assay buffer contains 25 mM HEPES pH 8.0, 10 mM Mg(CH3COO)2, 1 mM MnCl2, 0.1% BSA, 0.01% Brij® 35, and 5 mM dithiothreitol (DTT). […] The generation of phosphorylated p53 as a result of the ATR mediated reaction in the presence of ATP is detected by using specific antibodies [labeled with the fluorophores europium (Eu) as donor and d2 as acceptor (Cisbio Bioassays)] enabling FRET. […] Following signal development for 2 h the plates are analyzed in an EnVision (PerkinElmer) microplate reader using the TRF mode with laser excitation. Upon excitation of the donor europium at 340 nm the emitted fluorescence light of the acceptor d2 at 665 nm as well as from the donor Eu at 615 nm are measured. The amount of phosphorylated p53 is directly proportional to the ratio of the amounts of emitted light i.e. the ratio of the relative fluorescence units (rfu) at 665 nm and 615 nm. […] In particular, IC50 values are determined in the usual manner by fitting a dose-response curve to the data points using nonlinear regression analysis.

[4] = FaSSIF, pH 6.5, fassif, FaSSiF, pH 6.5, read-out: Solubility FaSSiF, pH 6.5
[5] = FeSSIF, pH 5, fessif, FeSSiF, pH 5.0, read-out: Solubility FeSSiF, pH 5.0
[6] = PBS, pH 7.4, aqueous buffer, PBS, pH 7.4, read-out: Solubility PBS, pH 7.4

T1 sequence (Q13535 whole entry): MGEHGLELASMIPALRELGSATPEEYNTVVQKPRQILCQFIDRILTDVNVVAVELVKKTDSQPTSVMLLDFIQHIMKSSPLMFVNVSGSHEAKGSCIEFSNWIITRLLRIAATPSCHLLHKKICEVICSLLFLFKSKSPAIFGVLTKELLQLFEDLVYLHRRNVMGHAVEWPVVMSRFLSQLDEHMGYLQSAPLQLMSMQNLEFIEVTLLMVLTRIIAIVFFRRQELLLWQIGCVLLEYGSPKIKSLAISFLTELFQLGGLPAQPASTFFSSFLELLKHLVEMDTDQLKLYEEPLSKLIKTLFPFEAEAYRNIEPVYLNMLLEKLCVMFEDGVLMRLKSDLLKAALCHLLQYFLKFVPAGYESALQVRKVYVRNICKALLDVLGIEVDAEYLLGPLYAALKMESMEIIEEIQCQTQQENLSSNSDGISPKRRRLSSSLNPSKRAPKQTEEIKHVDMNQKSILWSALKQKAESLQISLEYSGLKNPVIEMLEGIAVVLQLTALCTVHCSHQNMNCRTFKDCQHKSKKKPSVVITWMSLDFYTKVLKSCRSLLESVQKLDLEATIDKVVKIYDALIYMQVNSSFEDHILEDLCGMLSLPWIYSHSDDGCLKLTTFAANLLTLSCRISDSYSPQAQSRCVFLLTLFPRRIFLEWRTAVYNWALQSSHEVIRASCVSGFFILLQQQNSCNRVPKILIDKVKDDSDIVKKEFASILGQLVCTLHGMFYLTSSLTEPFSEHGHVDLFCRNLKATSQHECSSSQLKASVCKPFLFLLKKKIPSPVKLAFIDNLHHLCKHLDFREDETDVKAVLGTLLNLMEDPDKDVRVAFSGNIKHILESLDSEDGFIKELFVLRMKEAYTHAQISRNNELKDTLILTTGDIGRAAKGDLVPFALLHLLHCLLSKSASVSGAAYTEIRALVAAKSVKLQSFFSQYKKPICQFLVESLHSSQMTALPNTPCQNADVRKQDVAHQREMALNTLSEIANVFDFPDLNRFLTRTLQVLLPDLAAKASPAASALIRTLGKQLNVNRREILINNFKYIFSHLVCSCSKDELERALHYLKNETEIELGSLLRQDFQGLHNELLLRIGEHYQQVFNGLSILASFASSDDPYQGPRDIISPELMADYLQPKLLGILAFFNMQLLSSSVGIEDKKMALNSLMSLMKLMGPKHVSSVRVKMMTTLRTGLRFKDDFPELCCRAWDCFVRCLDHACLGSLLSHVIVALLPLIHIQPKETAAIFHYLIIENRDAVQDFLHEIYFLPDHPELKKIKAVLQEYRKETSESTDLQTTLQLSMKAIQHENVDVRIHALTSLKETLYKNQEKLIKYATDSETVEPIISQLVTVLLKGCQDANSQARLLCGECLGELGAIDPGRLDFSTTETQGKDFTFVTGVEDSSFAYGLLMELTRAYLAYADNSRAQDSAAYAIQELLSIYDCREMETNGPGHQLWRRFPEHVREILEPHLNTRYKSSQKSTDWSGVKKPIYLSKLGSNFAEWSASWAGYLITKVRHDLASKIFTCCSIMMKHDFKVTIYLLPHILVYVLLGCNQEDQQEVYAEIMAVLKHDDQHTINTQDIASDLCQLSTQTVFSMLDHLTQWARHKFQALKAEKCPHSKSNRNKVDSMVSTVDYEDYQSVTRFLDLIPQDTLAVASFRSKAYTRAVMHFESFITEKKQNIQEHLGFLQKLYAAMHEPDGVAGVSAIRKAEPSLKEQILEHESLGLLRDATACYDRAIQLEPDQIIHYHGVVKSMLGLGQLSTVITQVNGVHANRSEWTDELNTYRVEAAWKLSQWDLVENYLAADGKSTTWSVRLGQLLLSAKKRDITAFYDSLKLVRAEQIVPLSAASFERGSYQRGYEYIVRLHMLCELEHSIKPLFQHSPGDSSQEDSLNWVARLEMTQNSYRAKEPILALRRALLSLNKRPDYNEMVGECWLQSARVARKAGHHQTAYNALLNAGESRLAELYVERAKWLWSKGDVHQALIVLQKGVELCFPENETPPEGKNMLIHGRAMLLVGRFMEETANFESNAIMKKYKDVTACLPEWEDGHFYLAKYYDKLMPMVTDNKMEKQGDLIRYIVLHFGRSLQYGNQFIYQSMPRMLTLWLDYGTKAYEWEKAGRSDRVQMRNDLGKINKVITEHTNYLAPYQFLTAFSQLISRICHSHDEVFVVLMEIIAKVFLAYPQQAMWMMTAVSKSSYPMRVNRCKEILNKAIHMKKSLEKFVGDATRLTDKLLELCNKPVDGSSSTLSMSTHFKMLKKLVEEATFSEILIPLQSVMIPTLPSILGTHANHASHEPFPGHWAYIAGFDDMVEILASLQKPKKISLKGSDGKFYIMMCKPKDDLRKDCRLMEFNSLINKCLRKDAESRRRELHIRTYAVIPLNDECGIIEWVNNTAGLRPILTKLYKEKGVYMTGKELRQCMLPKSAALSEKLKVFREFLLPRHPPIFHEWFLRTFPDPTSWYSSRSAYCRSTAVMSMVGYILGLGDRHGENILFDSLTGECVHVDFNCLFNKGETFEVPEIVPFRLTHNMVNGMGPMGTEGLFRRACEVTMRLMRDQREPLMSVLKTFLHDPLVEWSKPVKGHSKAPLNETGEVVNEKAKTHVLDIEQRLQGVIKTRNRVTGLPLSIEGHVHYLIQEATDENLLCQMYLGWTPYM
T1 sequence (Q8WXE1 whole entry partner): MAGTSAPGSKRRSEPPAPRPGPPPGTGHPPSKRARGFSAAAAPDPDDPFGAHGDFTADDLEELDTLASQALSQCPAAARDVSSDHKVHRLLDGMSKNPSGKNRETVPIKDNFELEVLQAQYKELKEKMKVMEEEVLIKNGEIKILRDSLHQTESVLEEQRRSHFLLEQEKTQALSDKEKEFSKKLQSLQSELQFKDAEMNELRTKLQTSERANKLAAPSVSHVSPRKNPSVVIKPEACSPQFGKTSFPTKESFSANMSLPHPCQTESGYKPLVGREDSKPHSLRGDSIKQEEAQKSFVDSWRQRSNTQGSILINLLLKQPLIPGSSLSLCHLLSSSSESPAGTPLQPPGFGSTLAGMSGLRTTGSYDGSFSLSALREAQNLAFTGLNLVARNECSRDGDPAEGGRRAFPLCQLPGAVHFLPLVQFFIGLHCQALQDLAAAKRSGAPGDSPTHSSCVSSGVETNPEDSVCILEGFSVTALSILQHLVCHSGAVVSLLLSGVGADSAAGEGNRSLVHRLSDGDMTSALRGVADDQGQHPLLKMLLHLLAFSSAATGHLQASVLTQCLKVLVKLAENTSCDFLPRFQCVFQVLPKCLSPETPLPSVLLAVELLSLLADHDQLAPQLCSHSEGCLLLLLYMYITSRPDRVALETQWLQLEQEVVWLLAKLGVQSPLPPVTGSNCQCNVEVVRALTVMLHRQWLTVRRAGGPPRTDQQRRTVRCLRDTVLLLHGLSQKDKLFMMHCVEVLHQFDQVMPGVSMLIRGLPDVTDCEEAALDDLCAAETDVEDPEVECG

Row | IC50 [1] | solubility [2, 4] | solubility [2, 5] | solubility [2, 6] | IC50 [3] | Solubility FaSSiF, pH 6.5 ([2]; FaSSiF, pH 6.5) | Solubility FeSSiF, pH 5.0 ([2]; FeSSiF, pH 5.0) | Solubility PBS, pH 7.4 ([2]; PBS, pH 7.4) | Structure (SMILES)
1 | 0.98 µM | 0.052 mg/mL (≈ 116 µM) | 0.201 mg/mL (≈ 448 µM) | 0.019 mg/mL (≈ 42.4 µM) | 5.06 µM |  |  |  | COc1cc2ncc3c(c2cc1-c1cn(C)nc1C)n(-c1c(F)cncc1OC)c(=O)n3C [Compound Y, 8-(1,3-dimethyl-1H-pyrazol-4-yl)-1-(3-fluoro-5-methoxypyridin-4-yl)-7-methoxy-3-methyl-1,3-dihydroimidazo[4,5-c]quinolin-2-one, reference compound]
2 | 1.29 µM |  |  |  | > 28 µM | 216 μg/ml | ~800 μg/ml | ~100 μg/ml | COc1cc2ncc3c(c2cc1-c1cn(C)nc1C)n(-c1c(F)cncc1OC)c(=O)n3C (single isomer, unassigned) [Compound 2, 8-(1,3-Dimethyl-1H-pyrazol-4-yl)-1-(Ra)-(3-fluoro-5-methoxy-pyridin-4-yl)-7-methoxy-3-methyl-1,3-dihydro-imidazo[4,5-c]quinolin-2-one]
3 | 0.6 µM | 0.242 mg/mL (≈ 540 µM) | 0.731 mg/mL (≈ 1630 µM) | ~0.1 mg/mL (≈ 223 µM) | 10 µM |  |  |  | COc1cc2ncc3c(c2cc1-c1cn(C)nc1C)n(-c1c(F)cncc1OC)c(=O)n3C (single isomer, unassigned) [Compound 1, 8-(1,3-Dimethyl-1H-pyrazol-4-yl)-1-(Sa)-(3-fluoro-5-methoxy-pyridin-4-yl)-7-methoxy-3-methyl-1,3-dihydro-imidazo[4,5-c]quinolin-2-one]
